Key:
Assay type in all cases: in vivo
[1] = test system: Erysiphe graminis f sp. tritici; assay: Test A: wheat powdery mildew, preventive spray on wheat seedlings; settings: wheat seedlings sprayed to run-off, inoculated following day with spore dust, 20° C. for 7 days; test concentration not stated
Source text: (§1) General protocol for preparing test suspensions: Test compounds are first dissolved in acetone in an amount equal to 3% of the final volume and then suspended at the desired concentration (in ppm) in acetone and purified water (50/50 mix) containing 250 ppm of the surfactant Trem® 014 (polyhydric alcohol esters). The resulting test suspensions are then used in the following tests. Spraying a 200 ppm test suspension to the point of run-off on the test plants is the equivalent of a rate of 500 g/ha
The test suspension was sprayed to the point of run-off on wheat seedlings. The following day the seedlings were inoculated with a spore dust of Erysiphe graminis f sp. tritici, (the causal agent of wheat powdery mildew) and incubated in a growth chamber at 20° C. for 7 days, after which disease ratings were made.
(§2) Results for Tests A-D are given in Table A. In the table, a rating of 100 indicates 100% disease control and a rating of 0 indicates no disease control (relative to the controls). A dash (-) indicates no test results. ND indicates disease control not determined due to phytotoxicity.

Puccinia recondita = assay: Test B: wheat leaf rust, preventive spray on wheat seedlings; settings: wheat seedlings sprayed to run-off, inoculated following day with spore suspension, saturated atmosphere 20° C. 24 hours then growth chamber 6 days; test concentration not stated
Source text: as §1
The test suspension was sprayed to the point of run-off on wheat seedlings. The following day the seedlings were inoculated with a spore suspension of Puccinia recondita (the causal agent of wheat leaf rust) and incubated in a saturated atmosphere at 20° C. for 24 hours, and then moved to a growth chamber at 20° C. for 6 days, after which disease ratings were made.
as §2

Phytophthora infestans = settings: tomato seedlings sprayed to run-off, inoculated following day with spore suspension, saturated atmosphere 20° C. 24 hours then growth chamber 5 days; test concentration not stated

| Structure (SMILES) | Test A disease control rating (100 = 100% disease control, 0 = no disease control relative to the controls) [1] | Test B disease control rating (100 = 100% disease control, 0 = no disease control relative to the controls) (Puccinia recondita) | Test C disease control rating (100 = 100% disease control, 0 = no disease control relative to the controls) (Phytophthora infestans) |
| --- | --- | --- | --- |
| Cc1cnc2c(c1)CCCC2NC(=O)c1c(Cl)cccc1Cl (stereo not drawn) [Compound A1, 2,6-dichloro-N-(5,6,7,8-tetrahydro-3-methyl-8-quinolinyl)benzamide] | 0% | 84% | 100% |
| Cc1cnc2c(c1)CCCC2NC(=O)c1ccc(Br)cc1 (stereo not drawn) [Compound A2] | 0% | 18% | 5% |
| Cc1cnc2c(c1)CCCC2NC(=O)c1ccccc1C(F)(F)F (stereo not drawn) [Compound A3] | 0% | 41% | 47% |
| Cc1cnc2c(c1)CCCC2NC(=O)c1c(F)cccc1F (stereo not drawn) [Compound A4] | 0% | 0% | 90% |
| Cc1cnc2c(c1)CCCC2NC(=O)c1ccccc1Cl (stereo not drawn) [Compound A5] | 0% | 55% | 46% |
| Cc1cnc2c(c1)CCCC2NC(=O)c1c(Cl)cc(Cl)cc1Cl (stereo not drawn) [Compound A6] | 0% | 9% | 82% |
| Cc1cnc2c(c1)CCCC2NC(=O)c1ccccc1C (stereo not drawn) [Compound A7] | 0% | 45% | 75% |
| Cc1cnc2c(c1)CCCC2NC(=O)c1c(F)ccc(F)c1F (stereo not drawn) [Compound A8, 2,3,6-trifluoro-N-(5,6,7,8-tetrahydro-3-methyl-8-quinolinyl)benzamide] | 0% | 55% | 100% |
| Cc1cnc2c(c1)CCCC2NC(=O)c1c(F)cccc1Cl (stereo not drawn) [Compound A9] | 0% | 38% | 97% |
| Cc1cnc2c(c1)CCCC2NC(=O)c1cccnc1Nc1cccc(C(F)(F)F)c1 (stereo not drawn) [Compound B1] | 0% | 19% | 16% |
| CSc1ncccc1C(=O)NC1CCCc2cc(C)cnc21 (stereo not drawn) [Compound B3] | 0% | 23% | 56% |
| Cc1cnc2c(c1)CCCC2NC(=O)c1ccc(Cl)nc1 (stereo not drawn) [Compound B4] | 0% | 9% | 32% |
| Cc1cnc2c(c1)CCCC2NC(=O)c1cccnc1O (stereo not drawn) [Compound B8] | 0% | 19% | 47% |
| Cc1cnc2c(c1)CCCC2NC(=O)c1ccnc(Cl)c1 (stereo not drawn) [Compound C1] | 0% | 55% | 84% |
| COc1cc(C(=O)NC2CCCc3cc(C)cnc32)cc(Cl)n1 (stereo not drawn) [Compound C2, 2-chloro-6-methoxy-N-(5,6,7,8-tetrahydro-3-methyl-8-quinolinyl)4-pyridinecarboxamide] | 95% | 28% | 18% |

From patent US20040127361A1 (priority 2003, published 2004)
